Source: patent publication US20230212239A1, “INHIBITORS OF CBL AUTOINHIBITION AND RELATED METHODS” (THE HOSPITAL FOR SICK CHILDREN, priority 2020, published 2023)
Substitutions are numbered along the chain they refer to. Names and notes keep the numbering of the source.

T1: purified recombinant CBL protein containing the TKBD-LHR-RING region (Homo sapiens, UniProt P22681)
T1 construct: Residues 25-357 and 2-436 of CBL were cloned in frame into pGEX4T-1; GST (N); made in house
T1 sequence (P22681 2-436): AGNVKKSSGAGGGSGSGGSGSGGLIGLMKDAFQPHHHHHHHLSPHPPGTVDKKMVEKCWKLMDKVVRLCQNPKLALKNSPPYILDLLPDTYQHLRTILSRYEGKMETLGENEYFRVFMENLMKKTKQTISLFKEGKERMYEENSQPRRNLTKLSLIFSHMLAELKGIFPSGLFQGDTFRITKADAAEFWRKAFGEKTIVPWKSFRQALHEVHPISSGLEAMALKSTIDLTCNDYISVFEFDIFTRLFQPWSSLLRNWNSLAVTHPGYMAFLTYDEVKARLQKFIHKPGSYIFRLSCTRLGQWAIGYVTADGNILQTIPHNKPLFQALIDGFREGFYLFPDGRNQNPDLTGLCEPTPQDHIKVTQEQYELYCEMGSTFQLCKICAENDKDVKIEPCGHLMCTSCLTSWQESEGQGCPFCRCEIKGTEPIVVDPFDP

B1: SLAP L241R: mouse SLAP interface mutant analogous to SLAP2 L241R (protein, UniProt Q60898 2-281, looked up, variant L241R)
Src-like-adapter: GNSMKSTSPPSERPLSSSEGLESDFLAVLTDYPSPDISPPIFRRGEKLRVISDEGGWWKAISLSTGRESYIPGICVARVYHGWLFEGLGRDKAEELLQLPDTKIGSFMIRESETKKGFYSLSVRHRQVKHYRIFRLPNNWYYISPRLTFQCLEDLVTHYSEVADGLCCVLTTPCLAQNIPAPTSHPSPCTSPGSPVTLRQKTFDWKRVSRLQEGSEGAENPLRVDESLFSYGLRESIASYRSLTGDDSSSFDRKKKSLSLMYTGSKRKSSFFSAPQYFED
B2: SLAP2 L241R: SLAP2 interface point mutant Leu241 to Arg (protein)
chain: EAERSKATAVALGSFPAGGPAELSLRLGEPLTIVSEDGDWWTVLSEVSGREYNIPSVHVAKVSHGWLYEGLSREKAEELLLLPGNPGGAFLIRESQTRRGSYSLSVRLSRPASWDRIRHYRIHCLDNGWLYISPRLTFPSLQALVDHYSELADDICCLLKEPCVLQRAGPLPGKDIPLPVTVQRTPLNWKELDSSLLFSEAATGEESLLSEGRRESLSFYISLNDEAVSLDDA
modifications: left off: large carriers; small tags and cut ends
notes: SLAP2 interface point mutant Leu241 to Arg
B3: SLAP2 S244E: SLAP2 interface point mutant Ser244 to Glu (protein)
chain: B2 chain with R213L, S216E
modifications: left off: large carriers; small tags and cut ends
notes: SLAP2 interface point mutant Ser244 to Glu
B4: SLAP2 L245P: SLAP2 point mutant Leu245 to proline, expected to interrupt the helix (protein)
chain: B2 chain with R213L, L217P
modifications: left off: large carriers; small tags and cut ends
notes: SLAP2 point mutant Leu245 to proline, expected to interrupt the helix
B5: SLAP2 G240R: SLAP2 interface point mutant Gly240 to Arg (protein)
chain: B2 chain with G212R, R213L
modifications: left off: large carriers; small tags and cut ends
notes: SLAP2 interface point mutant Gly240 to Arg

Key:
[1] = biological target: T1, purified recombinant CBL protein containing the TKBD-LHR-RING region; assay: High-throughput in vitro autoubiquitination assay (modified ELISA-based LifeSensors assay, 384 well), hit validation; format: biochemical; conditions: validation: triplicate wells; confirmed at percent activation cutoff of at least 20% in at least 2 wells
Description: As an approach to identify novel compounds that mimic SLAP2 binding, and thus stimulate CBL E3 ligase activity, an in vitro autoubiquitination assay was developed based on a modification of a commercially available ELISA based assay (LifeSensors, Inc) and adapted to a 384 well high throughput screen (HTS) format (FIG. 13). The assay uses purified recombinant CBL protein containing the TKBD-LHR-RING region and has been optimized using reference controls; phosphorylated CBL, and CBL with or without addition of purified pSLAP2. Reaction components contained in a master mix (E1, E2, free Ub), test compound and purified CBL are free in solution allowing native protein interactions, and polyubiquitin chains are captured by an immobilized ubiquitin binding domain and quantified using an anti-ubiquitin antibody detection method.
Peptidomimetic Screen: A library of 3000 α-helix and β/γ-turn peptidomimetic compounds were screened across 10 384 well plates. A primary screen yielded 14 hits from the OICR Peptidomimetic library (0.47% hit rate). A hit was defined as any compound producing a luminescent signal at least 4 Standard Deviations from the mean of all compounds on the plate (FIG. 14).
Validation experiment: Triplicate wells of hit compounds were randomly dispersed on plates and hits were confirmed based on a percent activation cutoff of at least 20% in at least 2 wells.

CBL TKBD = assay: Co-purification of CBL TKBD with Trx-His-SLAP2/SLAP (Duet co-expression, Ni-NTA, SDS-PAGE); format: binding; conditions: low salt concentration (0.15 M NaCl)
Description: To validate the CBL/SLAP2 binding interface, a series of mutants in a Duet co-expression vector system was generated for co-purification trials. The SLAP2 sequence was preceded by thioredoxin (Trx) and His-tag fusion proteins to allow co-purification of CBL TKBD that was bound to Trx-His-SLAP2 during the initial affinity chromatography purification step. Surface residues deemed to be important to the CBL/SLAP2 interface, but not CBL function or folding, were mutated to disrupt CBL/SLAP2 binding (FIG. 5C and FIG. 6). In our structure, SLAP2 Gly240 locates close to CBL Met269 and Ala270, such that mutation to a bulky Arg residue (G240R) could cause sterical constraints. Similarly, SLAP2 Leu241 is situated in a hydrophobic cleft composed of CBL Ala223, Trp258, and Val263; mutation to Arg (L241R) was predicted to disturb this binding pocket. Mutation of CBL Ala223 to Arg (A223R) would likewise disrupt this pocket, with CBL/SLAP2 double mutant A223R/L241R predicted to drastically disturb binding through sterical constraints and charge repulsion. (For clarity, CBL mutations herein are indicated in italics, SLAP2 in regular font.) Similarly, single or double mutation of CBL Ser226 or SLAP2 Ser244, whose side chain hydroxyl groups are in close proximity to one another, to charged Glu residues (S226E and S244E) was anticipated to interfere with CBL/SLAP2 binding. Finally, given that SLAP2 binds CBL as an α-helix, mutation of Leu245, located in the center of this α-helix, to proline (L245P) was expected to interrupt the helical structure and thus prevent SLAP2 binding. […] However, double mutation of the CBL/SLAP2 interface (A223R/L241R and S226E/S244E; FIG. 5D, lower panel) was not tolerated, even at low salt concentration.
For co-purification of CBL and SLAP2/SLAP, Duet-His-hSLAP2-CBL 29-261 Δ198-229 and 29-254 Δ198-229, Duet-His-Δlinker-hSLAP2-CBL WT and point mutants, and Duet-His-mSLAP-CBL WT and point mutants were overexpressed in E. coli BL-21 as above or TKB1 competent cells (Stratagene) as per manufacturer’s instructions, and cells harvested as above (except 100 mL of LB, overnight at 16-18° C., and 0.35-0.5 mM IPTG induction). Cell pellets were resuspended in either high or low salt (as for high salt except 25 mM HEPEs pH 7.5, 150 mM NaCl) lysis buffer and purified as above on Ni-NTA agarose (Qiagen) with wash buffer (25 mM HEPEs pH 7.5, 150 mM NaCl, 2% glycerol, 20 mM imidazole, 10 mM βME). Bead slurry was mixed with SDS 2X loading buffer (125 mM Tris pH 6.8, 4% SDS, 20% glycerol, 0.715 M βME, bromophenol blue), boiled, and analyzed by 10 or 12.5% SDS-PAGE, stained with Coomassie blue.

| Molecule | confirmed hit: CBL activation [1] | CBL TKBD co-purification (CBL TKBD) |
| --- | --- | --- |
| Cc1cc2c(cc1C(=O)NCc1c(F)cccc1Cl)OCCCO2 [Hit 1, N-[(2-chloro-6-fluorophenyl)methyl]-8-methyl-3,4-dihydro-2H-1,5-benzodioxepine-7-carboxamide] | active |  |
| O=S(=O)(Nc1cccc(Br)c1)c1ccc(-c2nnc(C3CCC3)o2)s1 [Hit 2, N-(3-bromophenyl)-5-(5-cyclobutyl-1,3,4-oxadiazol-2-yl)thiophene-2-sulfonamide] | active |  |
| COc1ccc(S(=O)(=O)Nc2cccn3c(C4CCC4)nnc23)cc1Cl [Hit 3, 3-chloro-N-{3-cyclobutyl-[1,2,4]triazolo[4,3-a]pyridin-8-yl}-4-methoxybenzene-1-sulfonamide] | active |  |
| COc1ccc(CNC(=O)C2(C)CCCN(S(=O)(=O)c3cccc(C(F)(F)F)c3)C2)cc1 (stereo not drawn) [Hit 4, N-[(4-methoxyphenyl)methyl]-3-methyl-1-[3-(trifluoromethyl)benzenesulfonyl]piperidine-3-carboxamide] | active |  |
| O=S(=O)(Nc1ccc(Cl)c(C(F)(F)F)c1)c1cc(-c2noc(C3CCC3)n2)cs1 [Hit 5, N-[4-chloro-3-(trifluoromethyl)phenyl]-4-(5-cyclobutyl-1,2,4-oxadiazol-3-yl)thiophene-2-sulfonamide] | active |  |
| O=S(=O)(Nc1ccc(OC(F)(F)F)cc1)c1ccc(-c2cnc(C3CCC3)o2)s1 [Hit 6, 5-(2-cyclobutyl-1,3-oxazol-5-yl)-N-[4-(trifluoromethoxy)phenyl]thiophene-2-sulfonamide] | active |  |
| Cc1ccc(S(=O)(=O)N2C(=O)CCC2C(=O)Nc2cccc3ccccc23)cc1 (stereo not drawn) [Hit 7, 1-(4-methylbenzenesulfonyl)-N-(naphthalen-1-yl)-5-oxopyrrolidine-2-carboxamide] | active |  |
| Cc1ccc(CN2CCN(CC(=O)Nc3ccc(C(C)C)cc3)C(=O)C2=O)cc1 [Hit 8, 2-{4-[(4-methylphenyl)methyl]-2,3-dioxopiperazin-1-yl}-N-[4-(propan-2-yl)phenyl]acetamide] | active |  |
| O=C(NCC(=O)N1CCN(c2ccc(-c3noc(C4CCC4)n3)cc2)CC1)c1ccco1 [Hit 9, N-(2-{4-[4-(5-cyclobutyl-1,2,4-oxadiazol-3-yl)phenyl]piperazin-1-yl}-2-oxoethyl)furan-2-carboxamide] | active |  |
| CC(C)OCCCNC(=O)c1cnc2scc(-c3ccccc3)n2c1=O [Hit 10, 5-oxo-3-phenyl-N-[3-(propan-2-yloxy)propyl]-5H-[1,3]thiazolo[3,2-a]pyrimidine-6-carboxamide] | active |  |
| B1 |  | abrogated CBL co-purification |
| B2 |  | abrogated CBL co-purification |
| B3 |  | tolerated |
| B4 |  | abrogated CBL co-purification |
| B5 |  | tolerated |
